System: Lipoclean lipase
Assay: Storage stability of liquid Lipoclean lipase formulation: residual lipase activity (PNP-Palmitate hydrolysis, 405 nm) versus frozen reference
Format: biochemical
Conditions: 2% enzyme protein, sorbitol and glycerol, 0.08% Z-GAY-H, compared with frozen reference sample
Description: Lipoclean formulations, per se (LCLU/g) residual activities: The Lipase was formulated from crude concentrate with standard formulation ingredients (sorbitol and glycerol) with and without the serine protease inhibitor (2% enzyme protein, 0.08% Z-GAY-H added with a 1% DMSO solution). The solution was split into separate vials which were incubated at different temperature and times and compared in activity with a frozen reference sample frozen directly after mixing. The lipase activity was measured by ester bond hydrolysis in the substrate PNP-Palmitate (C:16) and releases PNP which is yellow and can be detected at 405 nm.

Substance: Z-GAY-H [0.08% serine protease inhibitor]
- residual activities (lipase) (2 weeks, 50° C.): 71%
- residual activities (lipase) (4 weeks, 40° C.): 70%
- residual activities (lipase) (4 weeks, 50° C.): 56%
